Laboratory results published in patent publication US8927024B1, “Antimicrobial polyanhydride nanoparticles” (priority 2009, dated 2015).
Where “and” joins values, the source holds several entries; their conditions need not be identical. Identical values can stand only once. Like-named read-outs stand apart in the source and are kept apart here.

How the values were obtained:
[1] = tested on: Mycobacterium avium subsp. paratuberculosis (MAP); experiment: Viability of MAP in broth culture (% live MAP by flow); settings: for viability at 1.25 µg/mL / viability at 10 µg/mL: Mycobacterium avium, read-out: % live MAP (viability of MAP in broth)
Brucella melitensis 16M = settings: in vivo; cited from earlier work

| Molecule | antimicrobial activity in MAP cultures ([1]; FIG. 15, 10 μg/mL amikacin) | viability at 1.25 µg/mL ([1]; 24 h) [%] | viability at 10 µg/mL ([1]; 24 h) [%] | viability at 1.25 µg/mL ([1]; 48 h) [%] | viability at 10 µg/mL ([1]; 48 h) [%] | Log CFU/spleen (Brucella melitensis 16M) [Log CFU/spleen] | Reduction (log) (Brucella melitensis 16M) | Spleen wt (Brucella melitensis 16M) |
| --- | --- | --- | --- | --- | --- | --- | --- | --- |
| NCC[C@H](O)C(=O)N[C@@H]1C[C@H](N)[C@@H](O[C@H]2O[C@H](CN)[C@@H](O)[C@H](O)[C@H]2O)[C@H](O)[C@H]1O[C@H]1O[C@H](CO)[C@@H](O)[C@H](N)[C@H]1O [Soluble, amikacin] | minimal antimicrobial activity | 93.8 | 90.1 | 88.4 | 84.8 |  |  |  |
| gentamicin [Free GEN] |  |  |  |  |  | 6.77 ± 0.12 | 0.08 log and 0.04 log | 0.86 ± 0.05 g and 0.83 ± 0.26 g |
